The values below come from patent US11787839B2, “Targeting α2δ-1-bound glutamate receptors for treating diseases and disorders” (Board of Regents, The University of Texas System, priority 2017, dated 2023).

Entries after “also recorded” stand apart in the source; their conditions may differ.

Assay [1] relates to presynaptic NMDARs of spinal dorsal horn neurons. Nature of the assay: Spinal cord slice recordings, morphine-treated WT and Cacna2d1 KO mice.
Assay [2] relates to rats treated with the Cacna2d1 vector. Briefly: Withdrawal thresholds in rats overexpressing Cacna2d1 (lentiviral vector). The class given is in vivo, rat. Conditions: Cacna2d1 vector rats; AP5, peptide, gabapentin intrathecal; memantine systemic.
Assay [3] deals with T1, NMDARs of spinal dorsal horn neurons (Mus musculus, UniProt P35436+P35438+Q01097).
T1 construct: from tissue; host or cells: mouse lumbar spinal cord slices (dorsal horn / lamina II neurons), WT and Cacna2d1 KO
Briefly: Electrophysiological recordings in mouse spinal cord slices (spared nerve injury). In kind it is cell-based. Conditions: Cacna2d1+/+ mice; bath application of AP5.

A further assay has as its system SHRs. Nature of the assay: PVN microinjection and recording of ABP and RSNA in SHRs. In kind it is in vivo, rat. On the procedure:
PVN microinjection and recording of renal sympathetic nerve activity: Rats were anaesthetized via i.p. administration of a mixture of α-chloralose (60 mg kg-1) and urethane (800 mg kg-1) and mechanically ventilated with trachea cannulation. The arterial blood pressure (ABP) was monitored via a catheter placed in the left femoral artery, and heart rate (HR) was extracted from the pulsatile pressure wave. A retroperitoneal incision was made, and a branch of the left renal postganglionic sympathetic nerve was isolated under a surgical microscope. The renal sympathetic nerve was cut distally to ensure that afferent activity was not recorded. The ABP, HR and renal sympathetic nerve activity (RSNA) were recorded using a 1401-PLUS analogue-to-digital converter and Spike2 system (Cambridge Electronic Design, Cambridge, UK). After the brain was exposed, a microinjection pipette (tip diameter 20-30 μm) was advanced into the PVN in accordance with the stereotactic co-ordinates: 1.6-2.0 mm caudal to the bregma, 0.5 mm lateral to the midline and 7.0-7.5 mm ventral to the dura. The microinjection was performed using a Nanoject II (Drummond Scientific Company) and monitored using a surgical microscope as described previously (Li & Pan, 2006, 2007; Qiao et al. 2017). […] At the end of each experiment, the electrical background noise was measured after the proximal end of renal nerve was crushed at the end of each experiment. To determine the location of the injection site and diffusion of the drugs in the PVN, 5% rhodamine-labelled fluorescent microspheres (0.04 μm; Molecular Probes) were included in the injection solution. Rats were excluded from the data analysis if the microinjections were misplaced outside the PVN.

Assay [4] has as its system presynaptic NMDARs of spinal lamina II neurons. Briefly: Spinal cord slice recordings, paclitaxel-treated WT and α2δ-1 KO mice. In kind it is cell-based, mouse. Conditions: bath AP5.
Assay [5] deals with T2, NMDARs of spinal dorsal horn neurons (Rattus norvegicus, UniProt P35439+Q00959+Q00960).
T2 construct: from tissue; host or cells: rat lumbar spinal cord slices (lamina II neurons) and synaptosomes made from them
Briefly: Electrophysiological recordings in rat spinal cord slices (SNL, Cacna2d1 vector). The class given is cell-based. Conditions: SNL rats, siRNA intrathecal. Also noted: SNL-induced increase in (NMDAR-mediated) baseline frequency of mEPSCs: dose or concentration left out as unconfirmed. On the procedure: Electrophysiological recordings in spinal cord slices: Anesthesia was induced in rats or mice with isoflurane and removed the lumbar spinal cords via laminectomy. […] The spinal cord slices were placed in a glass bottom chamber and continuously perfused with Krebs solution at 5.0 ml/min at 34° C. maintained by an inline solution heater and a temperature controller.
It becomes impossible to visualize neurons in other laminas in adult (>10-week-old) rodent spinal cords because of heavy laminar myelination. […] The tip of the puff pipette was placed 150 μm away from the recorded neuron.
In some experiments, the attached dorsal root was electrically stimulated with a stimulating electrode (0.5 ms, 0.6 mA and 0.1 Hz) to evoke monosynaptic excitatory postsynaptic currents (EPSCs). The α-amino-3-hydroxy-5-methyl-4-isoxazolepropionic acid receptor (AMPAR)-mediated EPSCs were recorded at a holding potential of −60 mV in the presence of 10 μM bicuculline and 1 μM strychnine, whereas NMDAR-mediated EPSCs were recorded at +40 mV in the presence of 10 μM 6-cyano-7-nitroquinoxaline-2,3-dione, 10 μM bicuculline, and 1 μM strychnine. […] All signals were recorded using an amplifier (MultiClamp700B; Axon Instruments Inc., Union City, Calif.), filtered at 1-2 kHz, digitized at 10 kHz, and stored for off-line analysis. Final spinal cord slice recordings were performed 3-4 weeks after the nerve injury or sham surgery. In all electrophysiological experiments, 3-5 animals were used for each recording protocol, and only 1 neuron was recorded in each spinal cord slice.

The next assay has as its system SNL rats. Briefly: Withdrawal thresholds in spinal nerve ligation (SNL), sham and naive rats. In kind it is in vivo, rat. An excerpt:
Animal models of neuropathic pain: All surgical preparations and experimental protocols were approved by the Animal Care and Use Committee of the University of Texas MD Anderson Cancer Center and conformed to the National Institutes of Health guidelines for the ethical use of animals. Male Sprague-Dawley rats (8-10 weeks of age) were purchased from Harlan Laboratories (Indianapolis, Ind.). L5 and L6 spinal nerve ligation (SNL) were used as an experimental model of neuropathic pain (Cole et al., 2005). In brief, anesthesia was induced with 2-3% isoflurane, isolated the left L5-L6 spinal nerves and ligated them tightly with 6-0 silk sutures. The rats in the sham control group underwent the same surgical procedures except for the nerve ligation.
Intrathecal catheters were implanted in some SNL group rats during isoflurane-induced anesthesia 2-3 weeks after SNL surgery. Briefly, the anesthetized animal was placed on a stereotaxic frame, and a small incision was made at the back of its neck. Then, a small puncture was made in the atlanto-occipital membrane of the cisterna magna, and a PE-10 catheter (˜8 cm) was inserted with the caudal tip reaching the lumbar enlargement of the spinal cord (Luo et al., 2001; Patel et al., 2013). The rostral end of the catheter was exteriorized and closed the wound with sutures. The animals were allowed to recover for at least 4 days before the intrathecal injections were performed. Animals displaying signs of motor or neurological dysfunction were immediately killed with an intraperitoneal injection of phenobarbital (200 mg/kg) or by inhalation of CO2.
Behavioral assessments of nociception: To detect tactile allodynia, von Frey filaments were applied to the animals' left hindpaws (ipsilateral to the nerve injury). The rats or mice were placed individually in suspended chambers on a mesh floor. After an acclimation period of 30 min, a series of calibrated von Frey filaments were applied (Stoelting, Wood Dale, Ill.) perpendicularly to the plantar surface of the hindpaw with sufficient force to bend the filament for 6 s. Brisk withdrawal or paw flinching was considered a positive response. After a response, the filament of the next lower force was applied. In the absence of a response, the filament of the next greater force was applied. Using the up-down method, the tactile stimulus that produced a 50% likelihood of a withdrawal response was calculated (Fuller-Bicer et al., 2009).
To quantify the mechanical nociceptive threshold in the rats and mice (Patel et al., 2013; Dolphin et al., 2012), the paw pressure tests were conducted on the hindpaw with an analgesiometer (Ugo Basile, Varese, Italy). The device was activated by pressing a foot pedal, which triggered a motor that applied a constantly increasing force on a linear scale. […]

The next assay concerns α2δ-1. Briefly: α2δ expression in DRG and dorsal spinal cord after intrathecal siRNA (PCR, Western blot). Conditions: SNL rats. In kind it is in vivo, rat. On the procedure: Li et al., 2004). α2δ-1-specific siRNA […] ID NO:49) or universal negative-control siRNA (#SIC001, Sigma-Aldrich, St. Louis, Mo.) was mixed with i-Fect (Neuromics, Edina, Minn.) to a final concentration of 400 mg/L for the intrathecal injections. α2δ-1-specific siRNA or negative control siRNA (4 μg/day for 4 days) was administered intrathecally in the SNL rats 3 weeks after surgery (Dolphin et al., 2012). Western immunoblotting analysis of α2δ-1: Western blotting was used to quantify the α2δ-1 expression level in the DRG and dorsal spinal cord. […] The supernatant was carefully collected, and the protein concentration was measured using a DC Protein Assay Kit (Bio-Rad, Hercules, Calif.). […] The specific protein band detected by using the α2δ-1 antibody was confirmed by assays of protein knockdown using the α2δ-1-specific siRNA in vivo. The protein bands were detected with ECL kit (Thermo Fisher Scientific, Waltham, Mass.), and protein band intensity was visualized and quantified using the Odyssey Fc Imager (LI-COR Biosciences, Lincoln, Nebr.). Quantitative PCR analysis: Total RNA was extracted from the DRG and spinal cord tissues at the L5 and L6 levels using TRIzol-chloroform and then treated with DNase I (Invitrogen). cDNA was prepared by using the SuperScript III First-Strand Synthesis Kit and then treated with RNase H (Invitrogen). […]

[6] abbreviates: morphine-treated Cacna2d1 KO mice, AP5.
Where [7] appears, read: morphine-treated WT mice, AP5 50 μM.
The mark [8] stands for this setting: paclitaxel-treated α2δ-1 KO mice.

T2 sequence (Q00959 20-1464 limits assumed, other chains not shown): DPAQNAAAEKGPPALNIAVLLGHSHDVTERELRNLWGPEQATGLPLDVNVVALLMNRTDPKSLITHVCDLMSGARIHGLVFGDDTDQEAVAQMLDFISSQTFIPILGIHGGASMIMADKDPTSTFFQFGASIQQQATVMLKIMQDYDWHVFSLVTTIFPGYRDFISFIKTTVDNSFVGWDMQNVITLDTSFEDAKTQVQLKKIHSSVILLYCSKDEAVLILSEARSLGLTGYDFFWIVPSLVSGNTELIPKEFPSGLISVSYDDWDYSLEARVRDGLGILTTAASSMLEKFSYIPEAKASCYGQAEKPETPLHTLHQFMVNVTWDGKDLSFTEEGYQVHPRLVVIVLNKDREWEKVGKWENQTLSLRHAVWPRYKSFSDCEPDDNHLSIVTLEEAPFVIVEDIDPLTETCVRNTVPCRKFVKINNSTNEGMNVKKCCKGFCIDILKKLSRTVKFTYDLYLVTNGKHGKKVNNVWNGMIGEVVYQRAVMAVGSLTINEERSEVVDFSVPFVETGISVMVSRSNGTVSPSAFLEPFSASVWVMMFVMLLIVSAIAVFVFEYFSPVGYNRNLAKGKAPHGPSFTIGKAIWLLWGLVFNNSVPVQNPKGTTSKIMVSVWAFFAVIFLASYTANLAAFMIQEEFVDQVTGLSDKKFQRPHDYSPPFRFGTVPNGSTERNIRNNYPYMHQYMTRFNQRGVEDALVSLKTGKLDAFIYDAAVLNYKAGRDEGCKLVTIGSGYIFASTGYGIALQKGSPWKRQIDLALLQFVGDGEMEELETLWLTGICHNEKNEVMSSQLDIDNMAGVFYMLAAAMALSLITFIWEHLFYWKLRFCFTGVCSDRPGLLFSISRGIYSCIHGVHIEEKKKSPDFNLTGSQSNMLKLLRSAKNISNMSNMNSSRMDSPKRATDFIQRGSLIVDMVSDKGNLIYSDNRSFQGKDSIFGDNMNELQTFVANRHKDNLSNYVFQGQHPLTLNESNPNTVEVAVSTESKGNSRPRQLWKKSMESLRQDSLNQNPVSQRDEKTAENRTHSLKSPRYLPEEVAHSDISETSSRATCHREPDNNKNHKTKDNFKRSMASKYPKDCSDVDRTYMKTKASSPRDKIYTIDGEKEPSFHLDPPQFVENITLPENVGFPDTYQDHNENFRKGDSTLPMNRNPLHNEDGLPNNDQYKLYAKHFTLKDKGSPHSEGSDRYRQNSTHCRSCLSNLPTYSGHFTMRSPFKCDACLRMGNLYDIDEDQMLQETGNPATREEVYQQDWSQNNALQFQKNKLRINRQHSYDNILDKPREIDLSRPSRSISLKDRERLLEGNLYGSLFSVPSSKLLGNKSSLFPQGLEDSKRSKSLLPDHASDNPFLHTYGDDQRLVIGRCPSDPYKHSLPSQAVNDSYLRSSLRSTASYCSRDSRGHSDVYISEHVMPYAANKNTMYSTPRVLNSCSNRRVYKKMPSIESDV
T2 sequence (Q00960 27-1482, other chains not shown): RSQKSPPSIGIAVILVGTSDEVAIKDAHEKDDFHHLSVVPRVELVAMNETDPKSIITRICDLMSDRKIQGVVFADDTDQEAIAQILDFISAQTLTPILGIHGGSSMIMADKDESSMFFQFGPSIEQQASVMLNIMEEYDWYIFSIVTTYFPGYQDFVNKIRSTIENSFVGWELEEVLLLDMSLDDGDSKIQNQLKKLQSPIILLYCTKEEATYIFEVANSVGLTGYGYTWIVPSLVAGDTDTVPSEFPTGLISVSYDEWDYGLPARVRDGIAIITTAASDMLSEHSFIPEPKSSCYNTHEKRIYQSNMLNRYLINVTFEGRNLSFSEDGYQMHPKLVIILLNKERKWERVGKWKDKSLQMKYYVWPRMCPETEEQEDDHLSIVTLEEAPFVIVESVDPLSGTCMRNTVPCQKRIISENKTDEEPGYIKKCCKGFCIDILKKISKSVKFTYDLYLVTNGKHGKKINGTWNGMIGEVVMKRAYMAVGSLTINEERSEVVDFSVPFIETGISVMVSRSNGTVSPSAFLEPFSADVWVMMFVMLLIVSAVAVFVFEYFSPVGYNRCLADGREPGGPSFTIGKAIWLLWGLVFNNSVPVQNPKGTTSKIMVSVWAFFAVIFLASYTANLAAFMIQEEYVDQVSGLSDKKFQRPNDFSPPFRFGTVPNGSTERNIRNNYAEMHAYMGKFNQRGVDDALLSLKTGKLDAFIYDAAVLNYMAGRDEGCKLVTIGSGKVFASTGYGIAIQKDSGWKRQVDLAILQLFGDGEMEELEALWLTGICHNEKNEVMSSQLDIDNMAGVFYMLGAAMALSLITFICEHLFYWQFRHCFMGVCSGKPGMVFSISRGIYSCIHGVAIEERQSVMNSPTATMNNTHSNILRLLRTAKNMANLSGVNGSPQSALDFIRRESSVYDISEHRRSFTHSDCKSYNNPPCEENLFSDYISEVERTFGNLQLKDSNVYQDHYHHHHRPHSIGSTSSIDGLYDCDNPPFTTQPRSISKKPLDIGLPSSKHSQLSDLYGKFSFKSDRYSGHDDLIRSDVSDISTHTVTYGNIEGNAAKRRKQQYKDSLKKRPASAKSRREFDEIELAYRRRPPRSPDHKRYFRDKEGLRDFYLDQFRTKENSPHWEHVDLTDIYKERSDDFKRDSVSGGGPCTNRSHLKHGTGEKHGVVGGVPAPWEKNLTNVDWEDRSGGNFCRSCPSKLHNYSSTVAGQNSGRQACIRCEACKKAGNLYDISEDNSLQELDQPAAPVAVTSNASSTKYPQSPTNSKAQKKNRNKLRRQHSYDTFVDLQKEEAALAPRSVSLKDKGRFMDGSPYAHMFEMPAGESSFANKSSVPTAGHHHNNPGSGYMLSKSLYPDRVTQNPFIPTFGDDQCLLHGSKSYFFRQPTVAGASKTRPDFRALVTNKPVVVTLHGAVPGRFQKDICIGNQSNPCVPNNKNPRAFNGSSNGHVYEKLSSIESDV

For (2R)-amino-5-phosphonopentanoate [AP5], in assay [1] (setting [6]), the “amplitude or PPR of monosynaptic EPSCs” value was “had no effect” and the “frequency or amplitude of mEPSCs” value is “had no effect”. Besides, in assay [1] (setting [7]), the “PPR of evoked EPSCs” value is on record as “increased”, the “amplitude of monosynaptic EPSCs” value is reported as “significantly reduced” and the “baseline frequency of mEPSCs” value was “substantially reduced”. Besides, the “pain hypersensitivity induced by Cacna2d1 overexpression (tactile and pressure withdrawal thresholds)” value in assay [2] is recorded as “readily reversed”. In addition, the “nerve injury-increased amplitude of monosynaptic EPSCs evoked by dorsal root stimulation” value in assay [3] is “readily normalized”. For the same substance, the “ABP and RSNA, subsequent AP5 after α2δ-1Tat peptide” value in the assay on SHRs (AP5 1.0 nmol, 50 nL into the PVN) was “failed to further decrease”. Also, the “ABP and RSNA, AP5 after prior Tat-fused control peptide” value in the assay with SHRs (AP5 into the PVN) is listed as “significantly decreased”. Also, in assay [4] (WT mice), the “baseline PPR decreased by paclitaxel” value is recorded as “restored” and the “paclitaxel-induced increase in the frequency of mEPSCs” value is “normalized”. Also, the “increased baseline amplitude of evoked EPSCs” value in assay [4] (paclitaxel-treated WT mice) is given as “normalized”. Also, in assay [4] (setting [8]), the PPR result was “had no effect”, the “amplitude of evoked EPSCs” value is given as “had no effect” and the “frequency of mEPSCs” value was “had no effect”.

Regarding “CAAGCAACGAAGUUGUCUA [Cacna2d1-specific siRNA]”, the “SNL-induced increase in puff NMDA currents of dorsal horn neurons” value in assay [5] (gabapentin 100 mM for 30 min) is reported as “completely normalized”. The “SNL-induced increase in (NMDAR-mediated) baseline frequency of mEPSCs” value in assay [5] (gabapentin for 30 min) is given as “completely normalized”. For the same substance, the “pain hypersensitivity of SNL rats” value with SNL rats (SNL rats, peptides intrathecal or systemic, siRNA intrathecal) is “reduced pain hypersensitivity”. Moreover, in the assay with SNL rats (naive control rats, intrathecal siRNA), the “withdrawal thresholds in naive control rats” value was “had no effect; also recorded: No significant effects”. Moreover, the “expression level of α2δ-1 in the DRG and dorsal spinal cord” value in the assay with α2δ-1 was “reduced”.
